Test [1] addresses T1, Prolyl endopeptidase (Homo sapiens, UniProt P48147).
T1 sequence (P48147 whole entry): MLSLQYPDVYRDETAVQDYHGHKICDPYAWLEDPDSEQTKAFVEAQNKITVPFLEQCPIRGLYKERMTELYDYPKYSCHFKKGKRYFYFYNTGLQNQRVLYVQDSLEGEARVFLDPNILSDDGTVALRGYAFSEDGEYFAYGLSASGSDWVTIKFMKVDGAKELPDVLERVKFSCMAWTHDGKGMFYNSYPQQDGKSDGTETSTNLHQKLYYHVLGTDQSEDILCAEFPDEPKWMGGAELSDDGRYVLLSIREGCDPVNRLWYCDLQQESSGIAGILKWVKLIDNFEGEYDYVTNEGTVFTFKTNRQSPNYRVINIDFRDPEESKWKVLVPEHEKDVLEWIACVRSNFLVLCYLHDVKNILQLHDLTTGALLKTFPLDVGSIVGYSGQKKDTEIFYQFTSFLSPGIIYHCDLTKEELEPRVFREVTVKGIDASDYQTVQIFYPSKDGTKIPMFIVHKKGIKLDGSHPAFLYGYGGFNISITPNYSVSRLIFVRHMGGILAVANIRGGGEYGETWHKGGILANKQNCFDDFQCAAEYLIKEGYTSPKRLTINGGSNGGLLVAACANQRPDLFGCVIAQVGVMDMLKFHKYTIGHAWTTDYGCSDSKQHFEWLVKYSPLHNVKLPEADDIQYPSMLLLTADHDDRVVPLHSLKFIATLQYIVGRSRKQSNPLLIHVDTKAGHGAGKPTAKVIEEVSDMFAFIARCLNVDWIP
The experiment in a line: Inhibition of h-POP.

For test [2], the target named is Dipeptidyl peptidase 8 (Homo sapiens, UniProt Q6V1X1). The experiment in a line: Inhibition of h-DPP8.
Chain of Dipeptidyl peptidase 8 (Q6V1X1 whole entry): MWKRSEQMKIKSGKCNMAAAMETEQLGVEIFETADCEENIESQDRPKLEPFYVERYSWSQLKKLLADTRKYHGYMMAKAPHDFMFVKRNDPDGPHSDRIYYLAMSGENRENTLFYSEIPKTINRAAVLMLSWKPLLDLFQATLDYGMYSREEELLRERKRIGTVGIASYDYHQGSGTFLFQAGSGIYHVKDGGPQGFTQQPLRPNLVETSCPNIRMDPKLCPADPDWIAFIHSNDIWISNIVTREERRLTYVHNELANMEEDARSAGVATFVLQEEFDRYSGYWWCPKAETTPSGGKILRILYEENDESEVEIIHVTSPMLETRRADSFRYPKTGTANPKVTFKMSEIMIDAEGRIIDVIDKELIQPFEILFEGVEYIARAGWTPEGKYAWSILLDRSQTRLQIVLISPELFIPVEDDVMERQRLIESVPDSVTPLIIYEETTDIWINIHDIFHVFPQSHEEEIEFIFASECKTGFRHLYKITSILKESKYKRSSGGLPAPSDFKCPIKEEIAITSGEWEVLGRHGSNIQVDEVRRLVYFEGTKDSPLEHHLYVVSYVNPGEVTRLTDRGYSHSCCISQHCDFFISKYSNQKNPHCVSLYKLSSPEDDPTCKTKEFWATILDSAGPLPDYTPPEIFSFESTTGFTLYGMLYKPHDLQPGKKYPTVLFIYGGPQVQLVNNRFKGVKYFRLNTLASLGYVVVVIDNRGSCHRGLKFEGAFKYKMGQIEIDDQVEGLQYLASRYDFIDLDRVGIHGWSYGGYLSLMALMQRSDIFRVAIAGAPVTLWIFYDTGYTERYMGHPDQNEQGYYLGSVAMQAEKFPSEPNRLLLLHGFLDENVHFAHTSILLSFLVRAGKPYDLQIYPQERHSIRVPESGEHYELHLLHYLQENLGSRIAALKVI
Test [3] has as its target Dipeptidyl peptidase 9 (Homo sapiens, UniProt Q86TI2). In words: Inhibition of h-DPP9.
For test [4], the target named is T2, Dipeptidyl peptidase 4 (Homo sapiens, UniProt P27487). In words: Inhibition of h-DPPIV.
T2 sequence (P27487 whole entry): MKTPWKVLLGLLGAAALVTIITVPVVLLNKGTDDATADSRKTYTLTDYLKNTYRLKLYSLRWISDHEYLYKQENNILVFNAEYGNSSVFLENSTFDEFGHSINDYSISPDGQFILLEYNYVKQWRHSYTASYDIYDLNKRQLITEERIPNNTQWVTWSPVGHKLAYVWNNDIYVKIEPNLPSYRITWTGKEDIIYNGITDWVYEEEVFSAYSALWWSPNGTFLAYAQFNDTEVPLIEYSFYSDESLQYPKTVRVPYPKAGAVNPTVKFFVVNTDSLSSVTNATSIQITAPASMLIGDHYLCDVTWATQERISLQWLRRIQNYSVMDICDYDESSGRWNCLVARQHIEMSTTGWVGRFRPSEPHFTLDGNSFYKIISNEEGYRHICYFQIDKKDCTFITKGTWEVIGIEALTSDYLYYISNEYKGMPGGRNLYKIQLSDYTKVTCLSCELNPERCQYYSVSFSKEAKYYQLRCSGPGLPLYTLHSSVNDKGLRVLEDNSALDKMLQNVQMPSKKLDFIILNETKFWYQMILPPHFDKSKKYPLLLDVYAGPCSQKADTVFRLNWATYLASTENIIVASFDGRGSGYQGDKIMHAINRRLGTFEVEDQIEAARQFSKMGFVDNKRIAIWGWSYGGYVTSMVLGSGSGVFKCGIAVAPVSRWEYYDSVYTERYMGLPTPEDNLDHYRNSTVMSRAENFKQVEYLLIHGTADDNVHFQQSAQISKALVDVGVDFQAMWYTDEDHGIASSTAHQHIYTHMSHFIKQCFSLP
For test [5], the target named is T2, Dipeptidyl peptidase 4. The experiment in a line: Human DPPIV plasma binding (0% plasma). It counts as cell-free.

Chain of Dipeptidyl peptidase 9 (Q86TI2 whole entry): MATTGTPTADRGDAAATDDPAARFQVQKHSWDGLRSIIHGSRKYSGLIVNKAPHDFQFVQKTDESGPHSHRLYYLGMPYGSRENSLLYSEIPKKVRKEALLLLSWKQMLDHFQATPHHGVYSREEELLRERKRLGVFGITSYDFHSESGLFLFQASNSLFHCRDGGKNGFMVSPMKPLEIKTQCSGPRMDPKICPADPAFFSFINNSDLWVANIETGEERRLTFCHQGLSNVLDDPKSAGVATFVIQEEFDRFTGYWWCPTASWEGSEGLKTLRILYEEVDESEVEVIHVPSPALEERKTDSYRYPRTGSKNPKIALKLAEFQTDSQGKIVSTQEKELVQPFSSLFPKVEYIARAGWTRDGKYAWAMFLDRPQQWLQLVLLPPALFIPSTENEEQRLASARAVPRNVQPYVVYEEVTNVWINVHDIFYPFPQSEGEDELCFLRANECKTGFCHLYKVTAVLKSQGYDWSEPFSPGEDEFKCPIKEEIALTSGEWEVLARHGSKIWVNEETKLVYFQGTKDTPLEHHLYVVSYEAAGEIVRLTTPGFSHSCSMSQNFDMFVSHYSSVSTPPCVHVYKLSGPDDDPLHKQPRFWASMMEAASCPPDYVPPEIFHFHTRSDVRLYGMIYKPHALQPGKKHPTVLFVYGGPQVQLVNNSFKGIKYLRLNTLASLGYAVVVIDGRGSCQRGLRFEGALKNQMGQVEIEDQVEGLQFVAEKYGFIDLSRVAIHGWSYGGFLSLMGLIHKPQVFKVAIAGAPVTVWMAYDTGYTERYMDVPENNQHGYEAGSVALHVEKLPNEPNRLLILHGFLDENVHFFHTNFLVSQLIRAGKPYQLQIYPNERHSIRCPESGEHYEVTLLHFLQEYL

The term Ki denotes the equilibrium dissociation constant of an inhibitor or competing ligand from its target. High values mean a looser hold on the target, low ones a stronger hold on the target. On to `Cn1c(=O)c2nc(N3CCCC(N)C3)n(Cc3ccccc3C#N)c2c(=O)n1C` (stereo not drawn), for which, in test [1], the inhibition constant Ki was greater than 30000 nM.
Consider `NC1CCCN(c2nc3c(n2Cc2ccccc2C(F)(F)F)C(=O)c2ccccc2C3=O)C1` (stereo not drawn), for which the values for the inhibition constant Ki in test [2], in test [3] and in test [4] were greater than 30000 nM, greater than 3000 nM and 25 nM, respectively.
As for `Cn1c(=O)c2c(nc(N3CCCC(N)C3)n2Cc2ccccc2C#N)n(C)c1=O` (stereo not drawn), the Ki in test [5] was 2 nM; in test [2], greater than 30000 nM; in test [1], greater than 30000 nM; in test [4] it was 2 nM.
`Cn1ncc2c(nc(N3CCCC(N)C3)n2Cc2ccccc2C#N)c1=O` (stereo not drawn): the Ki in test [4] worked out at 260 nM.
For orientation: IC50 means the midpoint of a concentration-inhibition curve. A lower IC50 goes with greater potency in that assay. In the case of `CN1C(=O)C=C(N2CCC[C@@H](N)C2)C(Cc2ccccc2C#N)C1=O` (stereo partly drawn), in test [4], the half-inhibitory concentration (IC50) was found to be 4 nM.
As to `Cn1ncc2nc(N3CCCC(N)C3)n(Cc3ccccc3C#N)c2c1=O` (stereo not drawn), the results for the inhibitory constant (Ki) in test [2], in test [1] and in test [4] were greater than 3000 nM, greater than 30000 nM and 5 nM, respectively.
For the molecule `CN1C(=O)c2nc(N3CCCC(N)C3)n(Cc3ccccc3C#N)c2C1=O` (stereo not drawn), the inhibition constant (Ki) in test [1] is greater than 30000 nM; in test [3], greater than 3000 nM.
Take `Cn1ncc2nc(N3CCCC(N)C3)n(Cc3cccc(CC#N)c3)c2c1=O` (stereo not drawn): the Ki is greater than 3000 nM in test [2], greater than 30000 nM in test [1] and 11 nM in test [4].

The values are drawn from ChEMBL document CHEMBL1137273, “Xanthine mimetics as potent dipeptidyl peptidase IV inhibitors” (Bioorg Med Chem Lett, 2006).
